Test results from article PMC9098913, “In vitro reconstitution of Escherichia coli divisome activation” (Nature Communications, 2022).
Where two headings read alike, the source gives them in different places.

How the values were obtained:
[1] = Membrane off-binding rate (koff) of FtsA from FRAP
From the text: We could also use the data from these bleaching experiments to quantify the membrane-binding kinetics and diffusion of membrane-bound proteins by analysing the change of the fluorescence profile during recovery.
Equimolar concentrations of Cy3- and Cy5-labelled FtsA, supplemented with 20% unlabelled FtsA were used to study FRET and FRAP. Five pre-bleach frames were acquired, followed by acceptor photobleaching of a rectangular ROI with 40% 641 nm laser power and a dwell size of 1 µs/pixel, 75% overlapping lines. The recovery of the signal or the increase in donor intensity were measured with either two frames or one frame per second.
Bleaching the acceptor dye leads to an increase in the donor intensity, which can be used to quantify the Foerster Resonance energy transfer (FRET)[48]. FRET efficiency was quantified with E%=Ipost/Ipost+Ipre⋅100 , where Ipost is the intensity of the […] and Ipre is the […]. […] To extract the contribution of both processes, we adjusted a routine recently published by Gerganova et al.[33]. In short, the code provides the contribution of both modes of recovery by analysing the shape of the fluorescence recovery profile. […] Contribution of diffusion leads to a change of the slope of the outer borders of the bleached region (S4h right). Thus, by measuring the change of the slope of the border recovery, diffusion and simple on/off binding can be distinguished. We developed “FRAPdiff”, a graphical user interface, which uses the original fit routine by David Rutkowski. It can be used directly on.tiff movies with annotated bleach regions as ImageJ ROIs. In addition, we added optional bleach correction, user selectable projection axis (x or y), and optional mirroring of the recovery profiles, if bleaching was not symmetric. The original fit routine for estimating the recovery and diffusion dynamics can be found at https://github.com/davidmrutkowski/1DReflectingDiffusion. FRAPdiff is available at 10.5281/zenodo.6400639[49] under the GPLv3 open-source license.

FtsZ [2] = settings: His-tagged FtsA
Protocol: (§1) Co-treadmilling of FtsA with FtsZ relies on the dynamic exchange of FtsA on the membrane. […] To investigate the respective contributions of membrane binding kinetics and FtsA self-interaction on the colocalization dynamics with FtsZ, we wanted to create variants of the two FtsA proteins that are permanently attached to the membrane. […] Accordingly, in these experiments the proteins only differ in their tendency to form oligomers.
(§2) To study colocalization of His-tagged variants of FtsA, 0.5–1 µM of Cy5 labelled His-tagged FtsAs were added to the chamber, incubated for 20 min and washed 6x with reaction buffer. […] To control the density of membrane-bound FtsA, SUVs without and with Tris-NTA lipids were mixed to obtain the respective Tris-NTA concentrations. To perform FRET/FRAP experiments, equimolar concentrations of Cy3 and Cy5 labelled His-tagged FtsAs (total 0.5–1 µM) or His-SUMO-Cys were added to a chamber and treated as above. […] FRAP experiments were performed as described before.
Time-lapse videos were first intensity-corrected and contrast-enhanced to avoid bleaching effects and simplify subsequent analysis. To remove contributions of X–Y drift, the videos were processed with the Linear Stack Alignment with SIFT plugin. Proper alignment was checked with the 3TP align plugin (J. A. Parker; Beth Israel Deaconess Medical Center, Boston). Subsequently, regions of interest (ROIs) in the center of the stacks were chosen for colocalization analysis. The Pearson’s correlation coefficient (PCC) was quantified with the Image CorrelationJ 1o plugin. To extract information about the relative ratio of FtsZ/FtsA molecules (slope of linear regression), we also used the Image CorrelationJ 1o plugin. As an output, the plugin provides a scatterplot of FtsZ vs FtsA intensities, to which we fitted a linear slope y=k⋅x+d , where k is the slope and d the offset. The slope was used as an estimate for the ratio of FtsA molecules below FtsZ filaments.

FtsZ [3] = settings: His-tagged FtsA; remark: listed apart in the source
Protocol: as §1, §2
Treadmilling dynamics, were quantified using an automated image analysis protocol previously developed by our group. To visualize colocalization of the co-treadmilling FtsZ & FtsA filaments, we used dual-colour videos obtained at an acquisition rate of one frame per 2 s. The two channels were aligned using FIJI’s 3TP align plugin. Both channels were then subjected to the image subtraction protocol and colocalization was measured as described above.

[4] = 0.60% Tris NTA, Exp. 1 (statistical analysis)
[5] = 0.60% Tris NTA, Exp. 2 (statistical analysis)
[6] = 0.80% Tris NTA, Exp. 1 (statistical analysis)
[7] = 0.80% Tris NTA, Exp. 3 (statistical analysis)
[8] = 1.00% Tris NTA, Exp. 1 (statistical analysis)
[9] = 1.00% Tris NTA, Exp. 2 (statistical analysis)
[10] = 1.00% Tris NTA, Exp. 3 (statistical analysis)
[11] = 2.00% Tris NTA, Exp. 1 (statistical analysis)
[12] = 2.00% Tris NTA, Exp. 2 (statistical analysis)
[13] = 2.00% Tris NTA, Exp. 3 (statistical analysis)
[14] = […] Tris NTA, Exp. 1 (statistical analysis)
[15] = […] Tris NTA, Exp. 2 (statistical analysis)
[16] = […] Tris NTA, Exp. 3 (statistical analysis)

FtsA WT: wild-type E. coli actin-homologue FtsA, membrane anchor of FtsZ
Off binding rate, mean ([1]; 0.1 µM FtsA + FtsN&Z): 0.018 s
Off binding rate, mean ([1]; 0.1 µM FtsA + FtsN): 0.032 s
Off binding rate, mean ([1]; 0.1 µM FtsA + FtsZ): 0.0428 s
Off binding rate, mean ([1]; 0.1 µM FtsA alone): 0.0544 s
Off binding rate, mean ([1]; 0.2 µM FtsA + FtsN&Z): 0.0128 s
Off binding rate, mean ([1]; 0.2 µM FtsA + FtsN): 0.026 s
Off binding rate, mean ([1]; 0.2 µM FtsA + FtsZ): 0.0502 s
Off binding rate, mean ([1]; 0.2 µM FtsA alone): 0.0443 s
Off binding rate, mean ([1]; 0.4 µM FtsA + FtsN&Z): 0.0174 s
Off binding rate, mean ([1]; 0.4 µM FtsA + FtsN): 0.0196 s
Off binding rate, mean ([1]; 0.4 µM FtsA + FtsZ): 0.0502 s
Off binding rate, mean ([1]; 0.4 µM FtsA alone): 0.0375 s
membrane exchange (off-rate) ([1]; 0.4 µM FtsA, p-value 6.73 × 10^−6): 0.04 ± 0.01 s⁻¹
Off binding rate, mean ([1]; 0.8 µM FtsA + FtsN&Z): 0.0278 s
Off binding rate, mean ([1]; 0.8 µM FtsA + FtsN): 0.0277 s
Off binding rate, mean ([1]; 0.8 µM FtsA + FtsZ): 0.0562 s
Off binding rate, mean ([1]; 0.8 µM FtsA alone): 0.0396 s
Off binding rate ([1]; Fig. S3i/S3j, 0.10 µM FtsA, replicate 1): 0.0471 s⁻¹
Off binding rate ([1]; Fig. S3i/S3j, 0.10 µM FtsA, replicate 2): 0.024 s⁻¹
Off binding rate ([1]; Fig. S3i/S3j, 0.10 µM FtsA, replicate 3): 0.0306 s⁻¹
Off binding rate ([1]; Fig. S3i/S3j, 0.10 µM FtsA, replicate 4): 0.0374 s⁻¹
Off binding rate ([1]; Fig. S3i/S3j, 0.10 µM FtsA, summary value): 0.0544 s⁻¹
Off binding rate ([1]; Fig. S3i/S3j, 0.20 µM FtsA, summary value): 0.0443 s⁻¹
Off binding rate ([1]; Fig. S3i/S3j, 0.40 µM FtsA, summary value): 0.0375 s⁻¹
Off binding rate ([1]; Fig. S3i/S3j, 0.80 µM FtsA, summary value): 0.0396 s⁻¹
Off binding rate ([1]; Fig. S3m, AMP PNP, 0.10 µM FtsA, replicate 1): 0.0505 s⁻¹
Off binding rate ([1]; Fig. S3m, AMP PNP, 0.10 µM FtsA, replicate 2): 0.0348 s⁻¹
Off binding rate ([1]; Fig. S3m, AMP PNP, 0.20 µM FtsA, replicate 1): 0.0493 s⁻¹
Off binding rate ([1]; Fig. S3m, AMP PNP, 0.20 µM FtsA, replicate 2): 0.0628 s⁻¹
Off binding rate ([1]; Fig. S3m, AMPPNP, 0.10 µM FtsA, summary value): 0.04 s⁻¹
Off binding rate ([1]; Fig. S3m, AMPPNP, 0.20 µM FtsA, summary value): 0.06 s⁻¹
Off binding rate ([1]; Fig. S3m, AMPPNP, 0.40 µM FtsA, summary value): 0.08 s⁻¹
Off binding rate ([1]; Fig. S3m, AMPPNP, 0.80 µM FtsA, summary value): 0.06 s⁻¹
Off binding rate ([1]; Fig. S3m, ATP, 0.10 µM FtsA, summary value): 0.05 s⁻¹
Off binding rate ([1]; Fig. S3m, ATP, 0.20 µM FtsA, summary value): 0.04 s⁻¹
Off binding rate ([1]; Fig. S3m, ATP, 0.40 µM FtsA, summary value): 0.04 s⁻¹
Off binding rate ([1]; Fig. S3m, ATP, 0.80 µM FtsA, summary value): 0.04 s⁻¹
Off binding rate ([1]; Fig. S3m, ATPgS, 0.10 µM FtsA, summary value): 0.0254 s⁻¹
Off binding rate ([1]; Fig. S3m, ATPgS, 0.20 µM FtsA, summary value): 0.0233 s⁻¹
Off binding rate ([1]; Fig. S3m, ATPgS, 0.40 µM FtsA, summary value): 0.0157 s⁻¹
Off binding rate ([1]; Fig. S3m, ATPgS, 0.80 µM FtsA, summary value): 0.0252 s⁻¹
membrane off-rate ([1]; in the presence of FtsZ): ~0.05 s⁻¹
time bound relative to FtsZ monomers (times longer) ([1]; in the presence of FtsZ): 2–4 times
PCC (FtsZ [2]; [4]): 0.58
PCC (FtsZ [2]; [5]): 0.73
PCC, Mean (FtsZ [2]; 0.60% Tris NTA, n = 2 (WT), 3 (R286W), sd 0.07, 0.08, p-value 0.39): 0.65
PCC (FtsZ [2]; [6]): 0.66
PCC (FtsZ [2]; 0.80% Tris NTA, Exp. 2 (statistical analysis)): 0.70
PCC (FtsZ [2]; [7]): 0.68
PCC, Mean (FtsZ [2]; 0.80% Tris NTA, n = 3, 3, sd 0.0141 (WT), 0.0648 (R286W), p-value 0.61): 0.68
PCC (FtsZ [2]; [8]): 0.53
PCC (FtsZ [2]; [9]): 0.60
PCC (FtsZ [2]; [10]): 0.73
PCC (FtsZ [2]; 1.00% Tris NTA, Exp. 4 (statistical analysis)): 0.53
PCC, Mean (FtsZ [2]; 1.00% Tris NTA, n = 4 (WT), 3 (R286W), sd 0.08, 0.0316, p-value 6.25E-02): 0.60
PCC (FtsZ [2]; [11]): 0.12
PCC (FtsZ [2]; [12]): 0.14
PCC (FtsZ [2]; [13]): 0.16
PCC, Mean (FtsZ [2]; 2.00% Tris NTA, n = 3, 3, sd 0.0143 (WT), 0.04 (R286W), p-value 1.59E-04): 0.14
PCC (FtsZ [2]; [14]): 0.16
PCC (FtsZ [2]; [15]): 0.0429
PCC (FtsZ [2]; [16]): 0.18
PCC, Mean (FtsZ [2]; […] Tris NTA, n = 3, 3, sd 0.06 (WT), 0.02 (R286W), p-value 3.86E-04): 0.13
Differential PCC (FtsZ [3]; [4]): 0.51
Differential PCC (FtsZ [3]; [5]): 0.47
Differential PCC, Mean (FtsZ [3]; 0.60% Tris NTA, n = 2 (WT), 3 (R286W), sd 0.02, 0.057, p-value 0.67): 0.49
Differential PCC (FtsZ [3]; [6]): 0.49
Differential PCC (FtsZ [3]; [7]): 0.47
Differential PCC, Mean (FtsZ [3]; 0.80% Tris NTA, n = 3, 3, sd 0.05 (WT), 0.0749 (R286W), p-value 0.13): 0.45
Differential PCC (FtsZ [3]; [8]): 0.49
Differential PCC (FtsZ [3]; [9]): 0.28
Differential PCC (FtsZ [3]; [10]): 0.23
Differential PCC, Mean (FtsZ [3]; 1.00% Tris NTA, n = 3, 3, sd 0.12 (WT), 0.0377 (R286W), p-value 5.89E-02): 0.33
Differential PCC (FtsZ [3]; [11]): 0.06
Differential PCC (FtsZ [3]; [12]): 0.14
Differential PCC (FtsZ [3]; [13]): 0.0238
Differential PCC, Mean (FtsZ [3]; 2.00% Tris NTA, n = 3, 3, sd 0.0469 (WT), 0.04 (R286W), p-value 2.27E-03): 0.0739
Differential PCC (FtsZ [3]; [14]): 0.05
Differential PCC (FtsZ [3]; [15]): 0.035
Differential PCC (FtsZ [3]; [16]): 0.12
Differential PCC, Mean (FtsZ [3]; […] Tris NTA, n = 3, 3, sd 0.0371 (WT), 0.02 (R286W), p-value 5.70E-04): 0.07
